Assay results published in patent US7332482B2, “Method for treating benign prostatic hyperplasia” (BioXell S.p.A., priority 2003, dated 2008).
Marks after values point to notes of the source that are not given here.

Tested on: BPH cells
Test: In situ end labeling (ISEL) of apoptotic BPH cells
Assay type: cell-based, human
Description: Human BPH cells, prepared, maintained and used as previously described in Crescioli C, et al. Journal of Clinical and Endocrinology Metabolism (2000) 85 p 2576-2583, were obtained from prostate tissues derived from 5 patients, who underwent suprapubic adenomectomy for BPH, after informed consent and approval by the Local Ethical Committee.
ISEL was performed onto BPH cells using Apop Tag in situ apoptosis detection kit peroxydase following the manufacturer's instruction. Cells were incubated with T (10 nM), KGF (10 ng/ml) or Des(1-3)IGF-I (10 ng/ml) with or without Compound A (10 nM). The percentage of apoptotic cells (the number of stained cells divided by the total number of cells) was calculated in at least five separate fields per slide in five different slides. Results are expressed as mean±SEM from three separate experiments.

C=C1/C(=C\C=C2/CCC[C@]3(C)C([C@@H](C)C/C=C/C(O)(CC)CC)=CC[C@@H]23)C[C@@H](O)C[C@@H]1F [Compound A, 1-alpha-fluoro-25-hydroxy-16,23E-diene-26,27-bishomo-20-epi-cholecalciferol]
change in percentage of apoptotic nuclei vs untreated cells (48 h, Compound A 10 nM, T 10 nM, GFs 10 ng/ml): 270% | Apoptotic index (%) (Compound A 10 nM alone, ISEL): 68.44 ± 1.26^a % | Apoptotic index (%) (Compound A 10 nM with Des(1-3)IGF-I 10 ng/ml): 45.85 ± 0.66^a,b,c % | increase in number of ISEL-positive BPH cells in the presence of GFs or T (Compound A 10 nM with GFs or T): more than 250% | Apoptotic index (%) (Compound A 10 nM with KGF 10 ng/ml): 44.46 ± 0.57^a,b,c % | Apoptotic index (%) (Compound A 10 nM with T 10 nM): 49.06 ± 1.87^a,b,c %
